From patent publication US20030073812A1, “Non-endogenous, constitutively activated versions of plant G protein-coupled receptor: GCR1” (priority 2001, published 2003)

Experiments:
[1] = test system: non-endogenous, constitutively activated version of GCR1, R271P, BY-2 cells; assay: Thymidine incorporation in synchronized BY-2 cells, constitutively activated GCR1 R271P; format: cell-based, tobacco (Nicotiana tabacum); details: 3 μM and 10 μM ABA; BY-2 cells with R271P GCR1; measured over time; FIG. 11B
Experimental: (§1) Agrobacterium tumefaciens were transformed with the pMON-GCR1 plasmid and used to produce transgenic BY-2 cell lines. BY-2 cells were transformed according to the method disclosed in An, G. Plan Physiol. 79, 568-570 (1985). The selected transgenic alli were grown in the dark on selective medium at the 24° C. and transferred to fresh medium every 4 week. Liquid cultures were obtained for the different transgenic lines and synchronization was achieved by a 24-h subculture in 5 mg/liter aphidicolin. See, Combettes, B. et al., Methods Cells Sci., 21, 109-121 (1991).
(§2) DNA synthesis is measured by incubating 1 ml samples of the synchronized cell suspension with 1 μCi of [^3H] thymidine for 20 minutes at 27° C. in Eppendorf microtubes with gentle shaking. Cells were collected by centrifugation for 5 minutes at 1,800× g, and the pellet was frozen in dry ice. DNA was extracted with Plant DNAzol Reagent (GIBCO/BRL), resuspended in water, and the [^3H] radioactivity was determined with a scintillation counter.
(§3) To determine the effect of the non-endogenous, constitutively activated version of GCR1, […], on the cell cycle, control cell (empty vector), wild-type GCR1 (“wt”) and R271P overexpressing BY-2 cells were synchronized with aphidicolin for 24 h, and, after removal of the cell cycle blocker, thymidine incorporation was measured. (See, FIG. 10). […]

[2] = test system: wild-type GCR1 ("wt") BY-2 cells; assay: Thymidine incorporation in synchronized BY-2 cells, wild-type GCR1; format: cell-based, tobacco (Nicotiana tabacum); details: 3 μM and 10 μM ABA; BY-2 cells with wild-type GCR1; measured over time; FIG. 11A
Experimental: as §1, §2, §3

In the case of `CC1=CC(=O)CC(C)(C)C1(O)/C=C/C(C)=C\C(=O)O` (centres unmarked) [ABA, Abscissic Acid], the “thymidine incorporation (DNA synthesis)” value [1] is reported as “not affected” and the “thymidine incorporation (DNA synthesis)” value [2] is reported as “decreases thymidine incorporation”.
